According to PubChem BioAssay AID1259407 (Chemical Carcinogenesis Research Information System (CCRIS), 2018):
The source made the active and inactive calls. No rule for the calls is given here.

Test system: CCRIS mutagenicity, Ames/micronucleus/aberration tests
Assay: CCRIS mutagenicity studies
[1] = Test System: AMES SALMONELLA TYPHIMURIUM, Strain/Indicator: TA100, Metabolic Activation: HAMSTER, LIVER, S-9, AROCLOR 1254 (10%), Method: PREINCUBATION
[2] = Test System: AMES SALMONELLA TYPHIMURIUM, Strain/Indicator: TA100, Metabolic Activation: NONE, Method: PREINCUBATION
[3] = Test System: AMES SALMONELLA TYPHIMURIUM, Strain/Indicator: TA100, Metabolic Activation: RAT, LIVER, S-9, AROCLOR 1254 (10%), Method: PREINCUBATION
[4] = Test System: AMES SALMONELLA TYPHIMURIUM, Strain/Indicator: TA1535, Metabolic Activation: HAMSTER, LIVER, S-9, AROCLOR 1254 (10%), Method: PREINCUBATION
[5] = Test System: AMES SALMONELLA TYPHIMURIUM, Strain/Indicator: TA1535, Metabolic Activation: NONE, Method: PREINCUBATION
[6] = Test System: AMES SALMONELLA TYPHIMURIUM, Strain/Indicator: TA1535, Metabolic Activation: RAT, LIVER, S-9, AROCLOR 1254 (10%), Method: PREINCUBATION
[7] = Test System: AMES SALMONELLA TYPHIMURIUM, Strain/Indicator: TA98, Metabolic Activation: NONE, Method: STANDARD PLATE
[8] = Test System: AMES SALMONELLA TYPHIMURIUM, Strain/Indicator: TA100, Metabolic Activation: NONE, Method: STANDARD PLATE
[9] = Test System: AMES SALMONELLA TYPHIMURIUM, Strain/Indicator: TA100, Metabolic Activation: RAT, LIVER, S-9, AROCLOR 1254, Method: STANDARD PLATE

COCCN(CCOC)c1cc(NC(C)=O)c(-n2nc3c(Br)cc(N)c(Cl)c3n2)cc1OC
mutagenic call (Test System: AMES SALMONELLA TYPHIMURIUM, Strain/Indicator: TA98, Metabolic Activation: RAT LIVER S-9, AROCLOR 1254, Method: STANDARD PLATE): active; positive | mutagenic call (Test System: AMES SALMONELLA TYPHIMURIUM, Strain/Indicator: TA100, Metabolic Activation: RAT LIVER S-9, AROCLOR 1254, Method: STANDARD PLATE): active; positive | mutagenic call (Test System: AMES SALMONELLA TYPHIMURIUM, Strain/Indicator: TA104, Metabolic Activation: RAT LIVER S-9, AROCLOR 1254, Method: STANDARD PLATE): active; positive | mutagenic call (Test System: AMES SALMONELLA TYPHIMURIUM, Strain/Indicator: YG1024, Metabolic Activation: RAT LIVER S-9, PHENOBARBITAL, 5,6-BENZOFLAVONE (10%), Method: PREINCUBATION): active; positive

C=C(C)C(=O)OC(C)C
mutagenic call (Test System: AMES SALMONELLA TYPHIMURIUM, Strain/Indicator: TA98, Metabolic Activation: HAMSTER, LIVER, S-9, AROCLOR 1254 (10%), Method: PREINCUBATION): inactive; negative | mutagenic call (Test System: AMES SALMONELLA TYPHIMURIUM, Strain/Indicator: TA98, Metabolic Activation: NONE, Method: PREINCUBATION): inactive; negative | mutagenic call (Test System: AMES SALMONELLA TYPHIMURIUM, Strain/Indicator: TA98, Metabolic Activation: RAT, LIVER, S-9, AROCLOR 1254 (10%), Method: PREINCUBATION): inactive; negative | mutagenic call [1]: inactive; negative | mutagenic call [2]: inactive; negative | mutagenic call [3]: inactive; negative | mutagenic call [4]: inactive; negative | mutagenic call [5]: inactive; negative | mutagenic call [6]: inactive; negative | mutagenic call (Test System: AMES SALMONELLA TYPHIMURIUM, Strain/Indicator: TA1537, Metabolic Activation: HAMSTER, LIVER, S-9, AROCLOR 1254 (10%), Method: PREINCUBATION): inactive; negative | mutagenic call (Test System: AMES SALMONELLA TYPHIMURIUM, Strain/Indicator: TA1537, Metabolic Activation: NONE, Method: PREINCUBATION): inactive; negative | mutagenic call (Test System: AMES SALMONELLA TYPHIMURIUM, Strain/Indicator: TA1537, Metabolic Activation: RAT, LIVER, S-9, AROCLOR 1254 (10%), Method: PREINCUBATION): inactive; negative

O=C(N=c1sn(C(=O)c2cccc(Cl)c2)c2ccc([N+](=O)[O-])cc12)c1cccc(Cl)c1
mutagenic call (Test System: AMES SALMONELLA TYPHIMURIUM, Strain/Indicator: TA100, Metabolic Activation: S-9, Method: STANDARD PLATE): active; positive

CCOC1=CC(=O)C(NC(C)=O)=CC1=O
mutagenic call [7]: active; positive | mutagenic call [8]: active; positive

C=CC(=O)OCC1CO1 (configuration not stated)
mutagenic call [1]: active; positive | mutagenic call [2]: active; positive | mutagenic call [3]: active; positive | mutagenic call [4]: active; positive | mutagenic call [5]: active; positive | mutagenic call [6]: active; positive

O=C1C(=O)c2c(ccc3ccccc23)-c2ccccc21
mutagenic call [7]: inactive; negative | mutagenic call [9]: inactive; negative

O=C(Cl)OCc1ccccc1
mutagenic call [7]: inactive; negative | mutagenic call (Test System: AMES SALMONELLA TYPHIMURIUM, Strain/Indicator: TA98, Metabolic Activation: RAT, LIVER, S-9, AROCLOR 1254, Method: STANDARD PLATE): inactive; negative | mutagenic call [8]: inactive; negative | mutagenic call [9]: inactive; negative | mutagenic call (Test System: AMES SALMONELLA TYPHIMURIUM, Strain/Indicator: TA1535, Metabolic Activation: NONE, Method: STANDARD PLATE): inactive; negative | mutagenic call (Test System: AMES SALMONELLA TYPHIMURIUM, Strain/Indicator: TA1535, Metabolic Activation: RAT, LIVER, S-9, AROCLOR 1254, Method: STANDARD PLATE): inactive; negative | mutagenic call (Test System: AMES SALMONELLA TYPHIMURIUM, Strain/Indicator: TA1537, Metabolic Activation: NONE, Method: STANDARD PLATE): inactive; negative | mutagenic call (Test System: AMES SALMONELLA TYPHIMURIUM, Strain/Indicator: TA1537, Metabolic Activation: RAT, LIVER, S-9, AROCLOR 1254, Method: STANDARD PLATE): inactive; negative

Cn1c2ccc3ccccc3c2c2c3ccccc3ccc21
mutagenic call [9]: active; positive | mutagenic call (Test System: AMES SALMONELLA TYPHIMURIUM, Strain/Indicator: TM677, Metabolic Activation: RAT, LIVER, S-9, 3-METHYLCHOLANTHRENE (1%), Method: PREINCUBATION): inactive; negative | mutagenic call (Test System: AMES SALMONELLA TYPHIMURIUM, Strain/Indicator: TM677, Metabolic Activation: RAT, LIVER, S-9, 3-METHYLCHOLANTHRENE (10%), Method: PREINCUBATION): inactive; negative | mutagenic call (Test System: AMES SALMONELLA TYPHIMURIUM, Strain/Indicator: TM677, Metabolic Activation: RAT, LIVER, S-9, AROCLOR 1254 (10%), Method: PREINCUBATION): inactive; negative

CC(C)(Br)C(=O)NCc1ccccc1
mutagenic call (Test System: AMES SALMONELLA TYPHIMURIUM, Strain/Indicator: TA100, Metabolic Activation: MOUSE, LIVER, S-9, AROCLOR 1254, Method: STANDARD PLATE): inactive; negative | mutagenic call [8]: inactive; negative

NC(=O)Oc1ccccc1
mutagenic call (Test System: E. COLI, Strain/Indicator: WP2 UVRA, Metabolic Activation: NONE, Method: FLUCTUATION TEST): inactive; negative
